Measured values: US8841257B2, “Inhibitors of STAT3 and uses thereof” (Board of Regents, The University of Texas System, priority 2009, dated 2014)
Entries after “also recorded” stand apart in the source; their conditions may differ.

Tests used:
[1] = tested on: Focal Adhesion Kinase (FAK); experiment: Phosphorylation of Focal Adhesion Kinase Tyr861 in MDA-MB-468 cells; type: cell-based, human; settings: 2 hr treatment
Description: Effect of Prodrug on the phosphorylation of Focal Adhesion Kinase (FAK) in MDA-MB-468 breast tumor cells. MDA-MB-468 cells express constitutive phosphorylation of Tyr861 of FAK (Laird, A. et al., Src Family Kinase Activity is Required For Signal Tranducer and Activator of Transcription 3 and Focal Adhesion Kinase Phosphorylation and Vascular Endothelial Growth Factor Signaling In Vivo and For Anchorage-Dependent and Independent Growth Of Human Tumor Cells, Mol Cancer Ther, 2, 461-9(2003). a unique substrate of Src upon recruitment via its SH2 domain (Calalb, M. B., et al, S. K. Focal adhesion kinase tyrosine-861 is a major site of phosphorylation by Src. Biochem Biophys Res Commun 1996, 228, 662-8 (1996.) To test for cross reactivity to the Src SH2 domain, MDA-MB-468 cell extracts were probed for phosphorylation of Tyr861 of FAK.

[2] = tested on: STAT5; experiment: EGF-stimulated STAT5 phosphorylation in MDA-MB-468 cells; type: cell-based, human; settings: 1.5 hr prodrug, then EGF 100 ng/mL 30 min
Procedure: Effect of prodrug on the phosphorylation of STAT3, STAT5 and Akt in response to Epidermal Growth Factor stimulation. MDA-MB-468 cells were prepared as above. Prodrugs were prepared as 10 mM stock solutions in DMSO and aliquots were added to the culture media to give the correct final concentrations. After 1.5 hr EGF was added at 100 ng/mL. After 30 minutes cells were collected and lysed and proteins were separated by PAGE and transferred to three PVDF filters as above. The first filter was blocked with 5% bovine serum albumin and probed for total and phosphoStat3 as above. The second filter was probed for phosphoSer473Akt and total Akt using appropriate antibodies and similar detection procedures to those used for STAT3. The third filter was probed for phosphoTyr699 Stat5 and total STAT5 using appropriate antibodies and similar detection procedures to those used for STAT3.

[3] = tested on: IL-6; experiment: Inhibition of IL-6 expression in lung tumor cells (ELISA); type: cell-based, human; settings: 5 μM; HCC-827
Procedure: Inhibition of IL-6 expression in lung tumor cells. HCC-827 cells were seeded in 6-well plates at a density of 4×10^5 cells/well. The following day, the media was replaced with fresh media containing low serum and treated the compound from Example 1 at a concentration of 5 μM. The cells were incubated at 37° C. and the supernatant was collected at 2, 4, 24, 48, and 72 hours post treatment. The supernatant was centrifuged at 2000 rpm for 3 minutes, transferred to fresh tubes and stored at −20 for further analysis. The supernatants were diluted six times with distilled water. The supernatants were then subjected to ELISA analysis for expression of Interleukin-6 (IL-6) as per the manufacturer's protocol (Hs Human IL-6 kit, R&D Systems, Minneapolis, Minn. USA, Cat #HS600B). The amount of secreted IL-6 was calculated and quantified based on the standards and plotted as bar graphs using Microsoft excel. […] Stat3 expresses IL-6 and IL-6 stimulates Stat3 activation, resulting in angiogenesis, cell cycling and cell survival.

[4] = tested on: MDA7, MDA-MB-231, SUM149, and SUM190; experiment: Anchorage-independent growth in soft agar, four breast tumor models; type: cell-based; settings: MDA7, MDA-MB-231, SUM149, SUM190; 28 days
Procedure: Assay for anchorage-independent growth in soft agar Cells (5×10^5) were suspended in 1× DMEM/HEPES, 10% heat-inactivated FBS, 0.13% bicarbonate, and 0.33% BBL agar. The cells were plated on 1% base agar plates (60 mm) containing 1× DMEM/HEPES, 10% heat-inactivated FBS, and 1% BBL agar. Fresh serum-containing medium was fed to the cells on 3-day intervals. The dishes were then incubated at 37° C. with 5% CO2 for 28 days. The colonies that grew in soft agar were photographed and counted. Data are expressed as the number of colonies formed per plate±S.E.M. and three plates were counted per cell line.

[5] = tested on: HUVEC cells; experiment: Inhibition of tube formation in HUVEC cells; type: cell-based; settings: overnight; 0.01-5.0 μM tested
Procedure: Inhibition of tube formation in HUVEC cells. […] Briefly, 1×10^4 HUV endothelial cells were seeded on the surface of the polymerized EC matrix gel per well, treated with either DMSO or 0.01 μM, 0.1 μM, 0.2 μM, 0.5 μM, 1.0 μM, 2.0 μM, and 5.0 μM of the compound from Example 1 and the compound from Example 16. The cells were incubated overnight at 37° C. The next day the tubes were observed and the images were captured using a Nikon phase contrast inverted microscope.

[6] = tested on: VEGF; experiment: Inhibition of VEGF expression in lung tumor cells (ELISA); type: cell-based, human; settings: single dose of 5 μM; HCC-827
Procedure: Inhibition of VEGF expression in lung tumor cells. HCC-827 were seeded in 6-well plates at a density of 4×10^5 cells. The following day, the media was replaced with fresh media containing low serum and treated either the compound from example 16 at a concentration of 5 μM. The cells were incubated at 37° C. and the supernatant was collected at 2, 4, 24, 48 and 72 hours post treatment. The supernatant was centrifuged at 2000 rpm for 3 minutes, transferred to fresh tubes and stored at −20 for further analysis. The supernatants were diluted six times with distilled water.

[7] = tested on: MDA-MB-468 breast cancer cells; experiment: Inhibition of growth of MDA-MB-468 breast cancer cells (MTT); type: cell-based, human; settings: 72 hr
Procedure: MDA MB 468 cells were plated at 1500 cells/well DMEM with high glucose 10% FBS. Cells were plated into 96 well plates (1500 cells per well) in. After 24 h the media was changed and cells were treated with DMSO or increasing amounts of the compound of Example 1 in DMSO. All wells had equal concentrations of DMSO. At 72 hr viability was measured with the MTT assay. […] In the mixtures of compounds of Examples 16, 22, 1 and 8. the total concentration of the drug is as listed on the X-axis. However, the mixtures are equimolar amounts of both drugs. For example, 5 μM of the drug is actually 2.5 μM of the compound of Example 16 and 2.5 μM the compound of Example 22. The same is true for the mixture of compounds Example 1 and Example 8.

With `C/C(=C\C(=O)N[C@H]1CCc2cccc3c2N(C1=O)[C@H](C(=O)N[C@H](C)CCC(N)=O)C3)c1ccc(C(F)(F)P(=O)(OCOC(=O)C(C)(C)C)OCOC(=O)C(C)(C)C)cc1` [Example 1, (2E)-3-[4-[[bis[(2,2-dimethyl-1-oxopropoxy)methoxy]phosphinyl]difluoromethyl]phenyl]-but-2-enoyl-Haic-(R)-4-aminopentamide] the “phosphorylation of FAK Tyr861” value [1] was “no reduction; also recorded: do not inhibit”, the “Stat5 phosphorylation after EGF” value [2] was “no effect” and the “time for which IL-6 expression is inhibited” value [3] was 48 h. For the same molecule, the “colony formation in soft agar, four breast tumor models” value [4] was “effectively inhibited colony formation”.

In the case of `CCCC[C@H](NC(=O)/C=C(\C)c1ccc(C(F)(F)P(=O)(OCOC(=O)C(C)(C)C)OCOC(=O)C(C)(C)C)cc1)C(=O)N1C[C@H]2CC2[C@H]1C(=O)N[C@@H](CCC(N)=O)[C@@H](C)OCc1ccccc1` (stereo partly drawn) [Example 16, (2E)-3-[4-[[bis[(2,2-dimethyl-1-oxopropoxy)methoxy]phosphinyl]difluoromethyl]phenyl]-but-2-enoyl-norleucinyl-(2S,3R,4S)-methanoprolinyl-(4S,5R)-4-amino-5-benzyloxyhexamide], the “phosphorylation of FAK Tyr861” value [1] is reported as “no reduction; also recorded: do not inhibit”, the “Stat5 phosphorylation after EGF” value [2] is reported as “no effect” and the “concentration at which significant reduction in tube formation was observed” value [5] is reported as 2 µM. The “time up to which expression and excretion of VEGF is inhibited” value [6] was “up to 24 hr” and the “potency in MTT viability assay relative to Example 1” value [7] was “somewhat more potent”.
